Experimental findings from patent publication EP0588608A2, “Tricyclic compounds and pharmaceutical compositions containing them” (KYOWA HAKKO KOGYO CO., LTD., priority 1992, dated 1994) are described below.

Series [1] concerns ACAT. Put plainly: ACAT inhibiting activity test using HepG2 cells. In kind it is cell-based. Conditions: 10⁻⁶M test compound, human cultured cell line HepG2, [14C]-oleic acid incorporation into cholesterol ester; 1 µM. As to the method:
The ACAT inhibiting activity test using cells of human cultured cell line HepG2 was carried out in accordance with the method of Goldstein et al as described in Methods Enzymology, 98, 241, 1983. 5 x 10⁵ cells/well of human cultured cell line HepG2 were pre-cultured in 5% LPDS (rabbit lipoprotein-deficient serum)-DMEM (Dulbecco Modified Eagle Medium) overnight, and the medium was changed for a fresh 5% LPDS-DMEM (1 mℓ/well). To the medium having the cells were added 3 µℓ, as a whole, of cholesterol and 25-OH-cholesterol as dissolved in ethanol (with the final concentration being 10 µg/mℓ and 5 µg/mℓ, respectively) and 10 µℓ of a test compound (shown in Table 3 below) as dissolved in methanol (with the final concentration being 10⁻⁶M). The cells were cultured for 4 hours. Then, 10 µℓ (0.42 µCi/0.1 µmol/well) of [¹⁴C]-oleic acid-BSA (bovine serum albumin) complex was added to the medium, and the cells were cultured for further 2 hours. After the cultured cells were washed, the lipid of the cells was extracted with 0.5 mℓ/well of hexane/isopropanol (3/2) containing [3H]-cholesterol oleic acid 2000 dpm. The extract was dried to a solid under reduced pressure and the solid was fractionated by silica gel thin layer chromatography using a developing solvent of petroleum ether/diethyl ether/acetic acid (170/30/1) whereupon the radioactivity of the spot of the cholesterol ester was measured with a liquid scintillation counter. Subtracting the radioactivity of the blank test to which cholesterol and 25-OH-cholesterol were not added from the radioactivity as measured above gives the radioactivity of the test compound. The ACAT inhibiting activity of the test compound was calculated from the following equation, based on the radioactivity of the control group as obtained in the same manner as above without using the test compound. ACAT Inhibition (%) = {[Radioactivity of Control Group) - (Radioactivity of Test Compound)]/(Radioactivity of Control Group)} x 100

Series [2] deals with male ddy strain mice. The experiment in a line: Test for acute toxicity (minimum lethal dose, oral). In kind it is in vivo. Conditions: orally administered, mortality observed seven days after administration. How it is done: Groups of 3 male ddy strain mice weighing 20±1g were used. The test compounds were orally administered. Seven days after administration, the mortality was observed and the minimum lethal dose (MLD) was determined.

A value given as a limit tells only on which side of the number the result lay.

`CC(C)c1cccc(C(C)C)c1NC(=O)NCC1c2ccccc2COc2ccc(Br)cc21` (centres unmarked) [Compound 2, N-(2,6-diisopropylphenyl)-N'-(2-bromo-6,11-dihydrodibenz[b,e]oxepin-11-ylmethyl)urea]: the “Percentage of ACAT Inhibition” value in series [1] is 98%. Moreover, the “Acute Toxicity (MLD)” value in series [2] is listed as over 300 mg/kg.
As to `Cc1ccc2c(c1)C(CNC(=O)Nc1c(C(C)C)cccc1C(C)C)c1ccccc1CO2` (centres unmarked) [Compound 1, N-(2,6-diisopropylphenyl)-N'-(2-methyl-6,11-dihydrodibenz[b,e]oxepin-11-ylmethyl)urea], the “Percentage of ACAT Inhibition” value in series [1] is listed as 99%.
Consider `Cc1cc2c(c(C)c1Br)C(CNC(=O)Nc1c(C(C)C)cccc1C(C)C)c1ccccc1CO2` (centres unmarked) [Compound 3, N-(2,6-diisopropylphenyl)-N'-(2-bromo-1,3-dimethyl-6,11-dihydrobenz[b,e]oxepin-11-ylmethyl)urea], for which, in series [1], the “Percentage of ACAT Inhibition” value was determined as 97%.
Take `CC(C)c1cccc(C(C)C)c1NC(=O)OCC1c2ccccc2COc2ccccc21` (centres unmarked) [Compound 6, (6,11-Dihydrodibenz[b,e]oxepin-11-ylmethyl)-(2,6-diisopropylphenyl)carbamate]: the “Percentage of ACAT Inhibition” value in series [1] is listed as 40%.
In the case of `CC(C)c1cccc(C(C)C)c1NC(=O)NC=C1c2ccccc2CCc2ccccc21` [Compound 5], in series [1], the “Percentage of ACAT Inhibition” value worked out at 94%. Besides, the “Acute Toxicity (MLD)” value in series [2] is given as over 300 mg/kg.
As to `CC(C)c1cccc(C(C)C)c1NC(=O)NC=C1c2ccccc2COc2ccccc21` [Compound 4], the “Percentage of ACAT Inhibition” value in series [1] is reported as 93%.
